Results as given in ChEMBL document CHEMBL1154961, “Structure-activity relationships of bacterial outer-membrane permeabilizers based on polymyxin B heptapeptides” (2010).
≈ marks a conversion by molar mass, not a printed value.

Columns and labels:
Escherichia coli [1] = test: Induction of outer membrane permeability in Escherichia coli K-12 W3110 assessed as increase in novobiocin antibacterial activity after 20 hrs by liquid microdilution method; format: functional, organism-based
Escherichia coli [2] = test: Induction of outer membrane permeability in Escherichia coli K-12 W3110 assessed as increase in erythromycin antibacterial activity after 20 hrs by liquid microdilution method; format: functional, organism-based
Escherichia coli [3] = test: Antibacterial activity against Escherichia coli K-12 W3110 after 20 hrs by liquid microdilution method; format: functional; details: K-12 W3110, 20 h
Staphylococcus aureus = test: Antibacterial activity against Staphylococcus aureus 209P after 20 hrs by liquid microdilution method; format: functional

SMILES: CC(C)C[C@@H]1NC(=O)[C@@H](Cc2ccccc2)NC(=O)[C@H](CCN)N(C(=O)O)CCNC(=O)[C@H]([C@@H](C)O)NC(=O)[C@H](CCN)NC(=O)[C@H](CCN)NC1=O
- Activity (Escherichia coli [1]): Dose-dependent effect
- Activity (Escherichia coli [2]): Dose-dependent effect
- MIC (Escherichia coli [3]): > 128 µg/mL

SMILES: CO[C@@H]1[C@@H](OC(N)=O)[C@@H](O)[C@H](Oc2ccc3c(O)c(NC(=O)c4ccc(O)c(CC=C(C)C)c4)c(=O)oc3c2C)OC1(C)C [NOVOBIOCIN]
- MIC (Escherichia coli [3]): 128 µg/mL (≈ 209 µM)

SMILES: CC[C@H]1OC(=O)[C@H](C)[C@@H](O[C@H]2C[C@@](C)(OC)[C@@H](O)[C@H](C)O2)[C@H](C)[C@@H](O[C@@H]2O[C@H](C)C[C@H](N(C)C)[C@H]2O)[C@](C)(O)C[C@@H](C)C(=O)[C@H](C)[C@@H](O)[C@]1(C)O [ERYTHROMYCIN]
- MIC (Escherichia coli [3]): 64 µg/mL (≈ 87.2 µM)

SMILES: CC(C)CCCCCCCC(=O)N[C@@H](C(=O)N[C@@H](CN)C(=O)NCC(=O)N1CCNC(=O)[C@H]([C@@H](C)O)NC(=O)[C@H](CCN)NC(=O)[C@H](CCN)NC(=O)[C@H](CC(C)C)NC(=O)[C@@H](Cc2ccccc2)NC(=O)[C@@H]1CCN)[C@@H](C)O
- MIC (Staphylococcus aureus): 64 µg/mL (≈ 57.3 µM)
- MIC (Escherichia coli [3]): 0.5 µg/mL (≈ 0.447 µM)

SMILES: CCCCCCCC(=O)N[C@@H](CCN)C(=O)N[C@@](C)(C(=O)N[C@@H](CCN)C(=O)N[C@H]1CCNC(=O)[C@H]([C@@H](C)O)NC(=O)[C@H](CCN)NC(=O)[C@H](CCN)NC(=O)[C@H](CC(C)C)NC(=O)[C@@H](Cc2ccccc2)NC(=O)[C@H](CCN)N1)[C@H](C)O
- MIC (Staphylococcus aureus): > 128 µg/mL
- MIC (Escherichia coli [3]): 0.5 µg/mL (≈ 0.425 µM)

SMILES: CC(C)C[C@@H]1NC(=O)[C@@H](Cc2ccccc2)NC(=O)[C@H](CCCN)N(C(=O)O)CCNC(=O)[C@H]([C@@H](C)O)NC(=O)[C@H](CCCN)NC(=O)[C@H](CCCN)NC1=O
- MIC (Escherichia coli [3]): > 128 µg/mL

SMILES: CC(C)C[C@@H]1NC(=O)[C@@H](Cc2ccccc2)NC(=O)[C@H](CN)N(C(=O)O)CCNC(=O)[C@H]([C@@H](C)O)NC(=O)[C@H](CCCN)NC(=O)[C@H](CN)NC1=O
- MIC (Escherichia coli [3]): > 128 µg/mL

SMILES: CC(C)C[C@@H]1NC(=O)[C@@H](Cc2ccccc2)NC(=O)[C@H](CN)N(C(=O)O)CCNC(=O)[C@H]([C@@H](C)O)NC(=O)[C@H](CN)NC(=O)[C@H](CCCN)NC1=O
- MIC (Escherichia coli [3]): > 128 µg/mL

SMILES: CC(C)C[C@@H]1NC(=O)[C@@H](Cc2ccccc2)NC(=O)[C@H](CN)N(C(=O)O)CCNC(=O)[C@H]([C@@H](C)O)NC(=O)[C@H](CN)NC(=O)[C@H](CN)NC1=O
- MIC (Escherichia coli [3]): > 128 µg/mL

SMILES: CCCCCCCC(=O)N[C@@H](CCN)C(=O)N[C@@H](C(=O)N[C@@H](CCN)C(=O)N[C@H]1CCNC(=O)[C@H]([C@H](C)O)NC(=O)[C@H](CCN)NC(=O)[C@H](CCN)NC(=O)[C@H](CC(C)C)NC(=O)[C@@H](Cc2ccccc2)NC(=O)[C@H](CN)C1=O)[C@H](C)O
- MIC (Staphylococcus aureus): > 128 µg/mL
- MIC (Escherichia coli [3]): 16 µg/mL (≈ 13.8 µM)
